Assay results taken from PubChem BioAssay (NCI).
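Tested at 5 concentrations; 48 h exposure; 96-well plates; endpoints linearly interpolated, else capped at highest concentration. The concentration for full growth arrest is given as TGI.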

How the values were obtained:
Assay in all cases: growth of human tumour cells (NCI), 48 h
U251 CNS = test system: U251 CNS
DU-145 prostate = test system: DU-145 prostate
PC-3 prostate = test system: PC-3 prostate
SW-620 colon = test system: SW-620 colon
MALME-3M melanoma = test system: MALME-3M melanoma
A498 renal = test system: A498 renal
HCC-2998 colon = test system: HCC-2998 colon
NCI/ADR-RES ovarian = test system: NCI/ADR-RES ovarian
NCI-H522 lung = test system: NCI-H522 lung
SF-539 CNS = test system: SF-539 CNS
A549 NSCLC = test system: A549 NSCLC
MCF7 breast = test system: MCF7 breast
SK-OV-3 ovarian = test system: SK-OV-3 ovarian
MDA-N = test system: MDA-N
UACC-62 melanoma = test system: UACC-62 melanoma
NCI-H226 lung = test system: NCI-H226 lung
IGROV1 ovarian = test system: IGROV1 ovarian
MDA-MB-231 breast = test system: MDA-MB-231 breast
SK-MEL-2 melanoma = test system: SK-MEL-2 melanoma
OVCAR-8 ovarian = test system: OVCAR-8 ovarian
CCRF-CEM leukemia = test system: CCRF-CEM leukemia
SK-MEL-5 melanoma = test system: SK-MEL-5 melanoma
HOP-62 NSCLC = test system: HOP-62 NSCLC
SR leukemia = test system: SR leukemia
OVCAR-5 ovarian = test system: OVCAR-5 ovarian
HCT-15 colon = test system: HCT-15 colon
OVCAR-4 ovarian = test system: OVCAR-4 ovarian
HOP-92 NSCLC = test system: HOP-92 NSCLC
SNB-75 CNS = test system: SNB-75 CNS
NCI-H460 lung = test system: NCI-H460 lung
CAKI-1 renal = test system: CAKI-1 renal
UACC-257 melanoma = test system: UACC-257 melanoma
EKVX NSCLC = test system: EKVX NSCLC
HS 578T breast = test system: HS 578T breast
HT29 colon = test system: HT29 colon
UO-31 renal = test system: UO-31 renal
SNB-19 CNS = test system: SNB-19 CNS
HL-60(TB) leukemia = test system: HL-60(TB) leukemia
LOX IMVI melanoma = test system: LOX IMVI melanoma
MDA-MB-435 = test system: MDA-MB-435
M14 melanoma = test system: M14 melanoma
786-0 renal = test system: 786-0 renal
RXF 393 renal = test system: RXF 393 renal
T-47D breast = test system: T-47D breast
NCI-H23 lung = test system: NCI-H23 lung
HCT-116 colon = test system: HCT-116 colon
ACHN renal = test system: ACHN renal
TK-10 renal = test system: TK-10 renal
SN12C renal = test system: SN12C renal
SF-268 CNS = test system: SF-268 CNS
SF-295 CNS = test system: SF-295 CNS
K-562 leukemia = test system: K-562 leukemia
MOLT-4 leukemia = test system: MOLT-4 leukemia
SK-MEL-28 melanoma = test system: SK-MEL-28 melanoma
OVCAR-3 ovarian = test system: OVCAR-3 ovarian
COLO 205 colon = test system: COLO 205 colon
BT-549 breast = test system: BT-549 breast
RPMI-8226 leukemia = test system: RPMI-8226 leukemia
KM12 colon = test system: KM12 colon

NC(Cc1cnc(I)[nH]1)C(=O)O (stereo not drawn)
TGI (U251 CNS): > 100 µM
TGI (DU-145 prostate): > 100 µM
TGI (PC-3 prostate): > 100 µM
TGI (SW-620 colon): > 100 µM
TGI (MALME-3M melanoma): 75.2 µM
TGI (A498 renal): > 100 µM
TGI (HCC-2998 colon): > 100 µM
TGI (NCI/ADR-RES ovarian): > 100 µM
TGI (NCI-H522 lung): 72.9 µM
TGI (SF-539 CNS): > 100 µM
TGI (A549 NSCLC): > 100 µM
TGI (MCF7 breast): > 100 µM
TGI (SK-OV-3 ovarian): > 100 µM
TGI (MDA-N): > 100 µM
TGI (UACC-62 melanoma): > 100 µM
TGI (NCI-H226 lung): > 100 µM
TGI (IGROV1 ovarian): > 100 µM
TGI (MDA-MB-231 breast): > 100 µM
TGI (SK-MEL-2 melanoma): > 100 µM
TGI (OVCAR-8 ovarian): > 100 µM
TGI (CCRF-CEM leukemia): > 100 µM
TGI (SK-MEL-5 melanoma): > 100 µM
TGI (HOP-62 NSCLC): > 100 µM
TGI (SR leukemia): > 100 µM
TGI (OVCAR-5 ovarian): > 100 µM
TGI (HCT-15 colon): > 100 µM
TGI (OVCAR-4 ovarian): > 100 µM
TGI (HOP-92 NSCLC): 82.9 µM
TGI (SNB-75 CNS): > 100 µM
TGI (NCI-H460 lung): > 100 µM
TGI (CAKI-1 renal): > 100 µM
TGI (UACC-257 melanoma): > 100 µM
TGI (EKVX NSCLC): > 100 µM
TGI (HS 578T breast): 63.8 µM
TGI (HT29 colon): > 100 µM
TGI (UO-31 renal): > 100 µM
TGI (SNB-19 CNS): > 100 µM
TGI (HL-60(TB) leukemia): 6.41 µM
TGI (LOX IMVI melanoma): > 100 µM
TGI (MDA-MB-435): > 100 µM
TGI (M14 melanoma): > 100 µM
TGI (786-0 renal): > 100 µM
TGI (RXF 393 renal): > 100 µM
TGI (T-47D breast): > 100 µM
TGI (NCI-H23 lung): > 100 µM
TGI (HCT-116 colon): > 100 µM
TGI (ACHN renal): > 100 µM
TGI (TK-10 renal): > 100 µM
TGI (SN12C renal): > 100 µM
TGI (SF-268 CNS): > 100 µM
TGI (SF-295 CNS): > 100 µM
TGI (K-562 leukemia): > 100 µM
TGI (MOLT-4 leukemia): > 100 µM
TGI (SK-MEL-28 melanoma): > 100 µM
TGI (OVCAR-3 ovarian): > 100 µM
TGI (COLO 205 colon): > 100 µM
TGI (BT-549 breast): > 100 µM
TGI (RPMI-8226 leukemia): > 100 µM
TGI (KM12 colon): > 100 µM

CC(=O)Nc1ccc(S(=O)(=O)/N=C2\C=CC(=O)c3ccccc32)cc1
TGI (U251 CNS): 14.2 µM
TGI (DU-145 prostate): > 57.2 µM
TGI (PC-3 prostate): 15.4 µM
TGI (SW-620 colon): 47.6 µM
TGI (MALME-3M melanoma): 9.66 µM
TGI (A498 renal): 21.2 µM
TGI (HCC-2998 colon): 10.7 µM
TGI (NCI/ADR-RES ovarian): 22.9 µM
TGI (NCI-H522 lung): 29 µM
TGI (SF-539 CNS): 15.6 µM
TGI (A549 NSCLC): 29.7 µM
TGI (MCF7 breast): 12.2 µM
TGI (SK-OV-3 ovarian): 33.8 µM
TGI (MDA-N): 3.59 µM
TGI (UACC-62 melanoma): 12.2 µM
TGI (NCI-H226 lung): 18.1 µM
TGI (IGROV1 ovarian): 10.7 µM
TGI (MDA-MB-231 breast): 10.7 µM
TGI (SK-MEL-2 melanoma): 32.1 µM
TGI (OVCAR-8 ovarian): 9.13 µM
TGI (CCRF-CEM leukemia): 27.7 µM
TGI (SK-MEL-5 melanoma): 8.7 µM
TGI (HOP-62 NSCLC): 22.8 µM
TGI (SR leukemia): 11.8 µM
TGI (OVCAR-5 ovarian): 20.6 µM
TGI (HCT-15 colon): 16.1 µM
TGI (OVCAR-4 ovarian): 8.6 µM
TGI (HOP-92 NSCLC): 21.7 µM
TGI (SNB-75 CNS): 14.1 µM
TGI (NCI-H460 lung): 28.5 µM
TGI (CAKI-1 renal): 35.7 µM
TGI (UACC-257 melanoma): 12.4 µM
TGI (EKVX NSCLC): 22 µM
TGI (HS 578T breast): 26.1 µM
TGI (HT29 colon): 33.7 µM
TGI (UO-31 renal): 20 µM
TGI (SNB-19 CNS): 28.3 µM
TGI (HL-60(TB) leukemia): 11.2 µM
TGI (LOX IMVI melanoma): 15.2 µM
TGI (MDA-MB-435): 3.36 µM
TGI (M14 melanoma): 11.1 µM
TGI (786-0 renal): 26.4 µM
TGI (RXF 393 renal): 15.6 µM
TGI (T-47D breast): > 83 µM
TGI (NCI-H23 lung): 13.3 µM
TGI (HCT-116 colon): 22.8 µM
TGI (ACHN renal): 16.4 µM
TGI (TK-10 renal): 36.9 µM
TGI (SN12C renal): 11.9 µM
TGI (SF-268 CNS): 17.2 µM
TGI (SF-295 CNS): 15.1 µM
TGI (K-562 leukemia): 9.13 µM
TGI (MOLT-4 leukemia): 1.25 µM
TGI (SK-MEL-28 melanoma): 24.4 µM
TGI (OVCAR-3 ovarian): 10.3 µM
TGI (COLO 205 colon): 26.9 µM
TGI (BT-549 breast): 25.3 µM
TGI (RPMI-8226 leukemia): 25.9 µM
TGI (KM12 colon): 40.5 µM
